This is an account of results in patent publication US9890149B2 (NuBridge BioSciences, priority 2015, dated 2018).

The target of this assay is T1, ΔF508 mutant CFTR (Homo sapiens, UniProt P13569, DEL508-508).
T1 construct: expressed in transfected cells; host or cells: Fischer rat thyroid (FRT) cells
Description: Fluorescence Assay (halide-sensitive YFP, iodide influx) for ΔF508 mutant CFTR activity. Format: cell-based. Particulars: FRT cells expressing ΔF508-CFTR and YFP-H148Q/I152L, incubated 27° C. 20-24 h; forskolin (20 μM) and test compounds (20 μM) for 20 min; rate of fluorescence quenching by I−, normalized to forskolin alone. The source says:
The ΔF508 mutant CFTR activities of the CFTR modulators are detected using the Fluorescence Assay developed by Pedemonte (Pedemonte N., et al., Antihypertensive 1,4-dihydropyridines as correctors of the cystic fibrosis transmembrane conductance regulator channel gating defect caused by cystic fibrosis mutations, Mol. Pharmacol., 2005, 68, 1736-1746).
Fischer rat thyroid (FRT) cells, stably transfected with ΔF508 were retransfected with the YFP-H148Q/I152L fluorescent protein. The cells were plated (100,000 cells/well) on black 96-well microplates with clear plastic bottom (Corning Life Sciences, Acton, Mass.).
The 96-well microplates containing FRT cells expressing F508-CFTR and the halide-sensitive YFP were incubated at 27° C. for 20 to 24 h to allow rescue of the mutant protein to the plasma membrane. After incubation, cells were washed with PBS (containing 137 mM NaCl, 2.7 mM KCl, 8.1 mM Na2HPO4, 1.5 mM KH2PO4, 1 mM CaCl2, and 0.5 mM MgCl2) and stimulated for 20 min with forskolin (20 μM) and test compounds (20 μM) in a final volume of […] Microplates were then transferred to a microplate reader for CFTR activity determination.

T1 sequence (P13569 with tags, fused parts or gaps DEL508-508): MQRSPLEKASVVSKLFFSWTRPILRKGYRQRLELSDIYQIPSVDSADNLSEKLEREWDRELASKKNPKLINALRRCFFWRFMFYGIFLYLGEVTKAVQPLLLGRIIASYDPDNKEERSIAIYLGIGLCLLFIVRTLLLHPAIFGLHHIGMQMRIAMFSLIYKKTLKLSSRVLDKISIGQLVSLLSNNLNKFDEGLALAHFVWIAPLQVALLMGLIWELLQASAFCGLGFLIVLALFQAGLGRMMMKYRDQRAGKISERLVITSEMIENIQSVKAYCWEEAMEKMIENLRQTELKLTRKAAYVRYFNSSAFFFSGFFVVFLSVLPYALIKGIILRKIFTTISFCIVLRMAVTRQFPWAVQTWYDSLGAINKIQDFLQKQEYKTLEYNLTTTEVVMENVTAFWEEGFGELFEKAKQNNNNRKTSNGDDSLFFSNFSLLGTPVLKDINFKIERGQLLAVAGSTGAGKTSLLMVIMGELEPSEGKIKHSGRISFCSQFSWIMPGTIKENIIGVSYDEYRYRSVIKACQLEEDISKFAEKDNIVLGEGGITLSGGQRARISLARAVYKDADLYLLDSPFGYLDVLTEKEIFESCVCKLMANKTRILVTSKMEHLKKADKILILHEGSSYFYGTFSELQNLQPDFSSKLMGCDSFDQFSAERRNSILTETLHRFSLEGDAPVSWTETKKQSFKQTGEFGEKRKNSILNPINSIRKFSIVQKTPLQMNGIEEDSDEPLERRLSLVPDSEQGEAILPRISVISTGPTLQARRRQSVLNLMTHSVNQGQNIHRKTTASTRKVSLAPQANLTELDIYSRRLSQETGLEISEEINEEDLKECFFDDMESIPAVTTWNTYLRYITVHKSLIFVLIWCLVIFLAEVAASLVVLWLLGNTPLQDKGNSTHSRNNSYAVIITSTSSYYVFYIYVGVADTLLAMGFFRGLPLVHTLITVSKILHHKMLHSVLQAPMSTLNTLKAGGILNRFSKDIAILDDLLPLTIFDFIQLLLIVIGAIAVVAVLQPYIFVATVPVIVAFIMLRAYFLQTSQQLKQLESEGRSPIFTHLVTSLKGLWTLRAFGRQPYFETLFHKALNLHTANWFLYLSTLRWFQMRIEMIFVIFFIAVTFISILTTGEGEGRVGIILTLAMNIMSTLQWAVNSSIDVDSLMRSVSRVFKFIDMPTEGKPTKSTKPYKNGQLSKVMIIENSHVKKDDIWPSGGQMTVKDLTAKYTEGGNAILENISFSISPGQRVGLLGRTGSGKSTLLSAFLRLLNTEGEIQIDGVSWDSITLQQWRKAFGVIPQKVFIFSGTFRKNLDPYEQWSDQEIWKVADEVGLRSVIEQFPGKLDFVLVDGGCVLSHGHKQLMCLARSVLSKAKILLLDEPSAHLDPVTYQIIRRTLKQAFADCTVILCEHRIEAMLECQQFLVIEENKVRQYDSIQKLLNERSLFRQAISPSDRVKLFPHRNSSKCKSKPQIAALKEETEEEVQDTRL

As for `Cl.Nc1cc(C(F)(F)F)c(-c2c(F)cccc2F)nc1C(=O)Nc1cnsc1OC1CCCC(N)C1` (stereo not shown) [Example 61, 3-amino-N-(5-((3-aminocyclohexyl)oxy)isothiazol-4-yl)-6-(2,6-difluorophenyl)-5-(trifluoromethyl)picolinamide hydrochloride], the “CFTR Activity” value came out at 0.4.
